SMILES strings stand for the structures.

Common to all, as to format: in vivo, rat
Data set [1] is described as follows: Evaluation of pharmacokinetics after topical eye drops. The conditions noted are these: rats, topical eye drops 1 mg/mL in castor oil over four to seven days, expected trough, n = 2; for Mean concentration of test compound, Back of the eye / Mean concentration of test compound, Cornea / Mean concentration of test compound, Lacrimal gland and duct / Mean concentration of test compound, Lens and humor: wet tissue weight. On the procedure:
Evaluation of Pharmacokinetics
To evaluate the pharmacokinetics of test substances in vivo, these test substances are dissolved in appropriate formulation vehicles (e.g. castor oil). The test substances are then administered to rats topically as eye drops over four to seven days. Administered doses range usually between 0.1 to 5 mg/mL. Blood samples and ocular tissue samples are taken at the time of expected trough concentration, i.e. just before the next dosing would have occurred. Blood samples are retrieved via exsanguination in vials containing appropriate anticoagulants, such as lithium heparinate or potassium EDTA. Plasma is generated from the blood via centrifugation. Eyes are enucleated and briefly washed in PBS to remove possible remains of the topical formulation. Eyes are dissected and tissues of interest, e.g. cornea, lacrimal gland and duct, lens and humor and back of the eye tissue, are collected separately. Ocular tissues are pooled per individual animal, diluted in appropriate amounts of 0.9% NaCl in water and homogenized using a Tissuelyzer or equivalent system. The quantitative measurement of the test substances in the samples is performed using calibration curves in the respective matrices. The protein content of the samples is precipitated using acetonitrile or methanol. Thereafter, the samples are separated using HPLC in combination with reversed phase chromatography columns. The HPLC system is coupled to a triple quadrupole mass spectrometer via an electrospray interface. Particularly, HPLC was performed using a C18 column (e.g. Phenomenex Kinetex C18 5 mm 5 μm 2.1×50) and a mixture of 10 mM ammonium acetate pH6.8 and acetonitrile in a gradient with an increasing fraction of organic solvent. The retention time for the compound of example 2 was for example ca. 2.6 min.
Data: Mean concentration of test compound (μg/L of plasma or μg/kg of wet tissue weight), samples with concentrations below the lower limit of quantification (LOQ) are denoted as “<LOQ”, n corresponds to the number of the treated animals

Data set [2] deals with Sprague Dawley rats. In words: Lacrimal gland removal model with pain behavior read out (wipe test). The conditions noted are these: rats after lacrimal gland removal; after two and four weeks of treatment, compared to vehicle (FIG. 1). On the procedure:
Lacrimal Gland Removal Model with Pain Behavior Read Out
(§1) Sprague Dawley rats were anesthetized by intraperitoneal injection of 75 mg/kg ketamine +7.5 mg/kg xylazine hydrochloride. After removal of the facial hair, a 2 mm incision was carefully made between temporal lid margin and zygomatic arch. Bluntly separating the underlying tissue, exposing the fascia covering the intra-orbital lacrimal gland, avoiding the nerves and blood vessels. A small incision was made on the fascia, and the intra-orbital gland was gently pulled out and excised. The incision was sutured with a 8-0 polysorb suture and the skin was closed with a 5-0 polysorb suture (Ethilon; Ethicon Inc, Somerville, N.J.). A 3 mm incision was made just below the earlobe, and the extra-orbital lacrimal gland was pulled out and excised along its stem. This incision was closed in a manner similar as described above.
Acclimate rat in a quiet, clean, clear cage for 15 minutes. Gently hold head of rat, add one drop of 5M NaCl in the rat right eye, and start count wipes (front limb wipe across the face) for 30 seconds. Repeat wipe test in left eye. Wash each eye with 10 ml NS. […] The number of eye wipes over a period of thirty seconds was determined for each animal and averaged at various timepoints. […]

The subject of data set [3] is Sprague Dawley rats. Briefly: Lacrimal gland removal model, corneal nerve density measurement (IVCM). To be noted: rats after lacrimal gland removal; treatment started two weeks post removal, compared to vehicle (FIG. 2). The procedure: as §1
Nerve Density Measurement: […]

As for `N#Cc1cnn(-c2ccc(NC(=O)Cc3ccccc3Cl)cc2S(N)(=O)=O)c1` [2-(2-Chlorophenyl)-N-[4-(4-cyano-1H-pyrazol-1-yl)-3-sulfamoylphenyl]acetamide, reference compound], in data set [1], the “Mean concentration of test compound, Plasma” value came to 2.37 µg/L; the “Mean concentration of test compound, Back of the eye” value stood at 14.5 µg/kg; the “Mean concentration of test compound, Cornea” value was 13.4 µg/kg; the “Mean concentration of test compound, Lacrimal gland and duct” value was determined as 33.4 µg/kg. Further, in data set [1], the “Mean concentration of test compound, Lens and humor” value was below 4.0 µg/kg.
Consider `CC(=O)N(c1ccc(F)cc1)c1cc(NC(=O)Cc2cccc(F)c2Cl)ccn1` [Example 2, N-{4-[2-(2-chloro-3-fluorophenyl)acetamido]pyridin-2-yl}-N-(4-fluorophenyl)acetamide], for which, in the data set with Sprague Dawley rats [2], the “Eye wipe count (5M NaCl, 30 seconds)” value was “no apparent further increase in wipe count”. In data set [1], the “Mean concentration of test compound, Plasma” value worked out at 0.4 µg/L; the “Mean concentration of test compound, Back of the eye” value came to 13.8 µg/kg; the “Mean concentration of test compound, Cornea” value came to 44.9 µg/kg; the “Mean concentration of test compound, Lacrimal gland and duct” value was found to be 17.4 µg/kg. Besides, in data set [1], the “Mean concentration of test compound, Lens and humor” value was 1.8 µg/kg. The “Corneal nerve density (fold difference from baseline)” value in the data set on Sprague Dawley rats [3] was “a decline in nerve density could be observed”.

The record behind these values is patent US20230270729A1, “USE OF N-[…] HAVING P2X4 RECEPTOR ANTAGONISTIC ACTIVITY FOR TREATING CERTIAN OCULAR DISORDERS” (Bayer Aktiengesellschaft, priority 2020, published 2023).
